Data from patent publication US9708314B2, “Heterocyclic amide compound” (NISSAN CHEMICAL INDUSTRIES, LTD., priority 2013, dated 2017).

Legend:
Type in all cases: in vivo
[1] = system: Echinochloa oryzacola Vasing.; experiment: Test Example 2: herbicidal activity, application during weed generation in submerged conditions; settings: Eighteenth Table; application herbicide amount 320 g/ha
Outline: (§1)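 Mixed sowings in flooded alluvial soil (4 cm water), greenhouse 25-30 °C; emulsifiable concentrate diluted in water applied to the water surface at the 1-2 leaf stage, rate in g/ha. Effect scored three weeks later on a 0-5 scale (5 = ≥90% herbicidal ratio, 0 = ≤5%).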

Monochoria vaginalis = experiment: as above; settings: Eighteenth Table; application herbicide amount 320 g/ha
Outline: as §1

Scirpus juncoides = experiment: as above; settings: Eighteenth Table; application herbicide amount 320 g/ha
Outline: as §1

Abutilon theophrasti = experiment: Test Example 4: herbicidal effect by application to foliage (diluvial soil, plastic box); settings: for M (Abutilon theophrasti) herbicidal effect: application to foliage, application herbicide amount 320 g/ha
Outline: (§2)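 Plants were grown in sterilized diluvial soil in a greenhouse at 25-30° C for 14 days, then sprayed on stems and leaves with water-diluted emulsion formulation at set rates in g/ha. Weed control and crop injury were scored 3 weeks after treatment on a 0-5 herbicidal-ratio scale, from 0 (≤5%) to 5 (≥90%).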

Alopecurus myosuroides = experiment: as above; settings: for J (Alopecurus myosuroides) herbicidal effect: application to foliage, application herbicide amount 320 g/ha
Outline: as §2

Apera spica-venti. = experiment: as above; settings: for L (Apera spica-venti.) herbicidal effect: application to foliage, application herbicide amount 320 g/ha
Outline: as §2

Avena fatua = experiment: as above; settings: for I (Avena fatua) herbicidal effect: application to foliage, application herbicide amount 320 g/ha
Outline: as §2

Chenopodium album = experiment: as above; settings: for O (Chenopodium album) herbicidal effect: application to foliage, application herbicide amount 320 g/ha
Outline: as §2

[2] = system: Echinochloa crus-galli var. crus-galli; experiment: as above; settings: for H (Echinochloa crus-galli var. crus-galli) herbicidal effect: application to foliage, application herbicide amount 320 g/ha
Outline: as §2

Lolium multiflorum Lam. = experiment: as above; settings: for K (Lolium multiflorum Lam.) herbicidal effect: application to foliage, application herbicide amount 320 g/ha
Outline: as §2

Setaria viridis = experiment: as above; settings: for G (Setaria viridis) herbicidal effect: application to foliage, application herbicide amount 320 g/ha
Outline: as §2

Veronica persica = experiment: as above; settings: for R (Veronica persica) herbicidal effect: application to foliage, application herbicide amount 320 g/ha
Outline: as §2

[3] = system: Beta vulgaris ssp. vulgaris; experiment: Test Example 4: effect on crop by application to foliage (diluvial soil, plastic box); settings: for f (Beta vulgaris ssp. vulgaris) effect on crop: application to foliage, application herbicide amount 320 g/ha
Outline: as §2

Brassica campestris L. = experiment: as above; settings: for g (Brassica campestris L.) effect on crop: application to foliage, application herbicide amount 320 g/ha
Outline: as §2

Glycine max = experiment: as above; settings: for c (Glycine max) effect on crop: application to foliage, application herbicide amount 320 g/ha
Outline: as §2

Triticum aestivum = experiment: as above; settings: for e (Triticum aestivum) effect on crop: application to foliage, application herbicide amount 320 g/ha
Outline: as §2

Zea mays = experiment: as above; settings: for b (Zea mays) effect on crop: application to foliage, application herbicide amount 320 g/ha
Outline: as §2

[4] = system: directly sowed Oryza sativa; experiment: as above; settings: for d (directly sowed Oryza sativa) effect on crop: application to foliage, application herbicide amount 320 g/ha
Outline: as §2

[5] = Application herbicide amount 320 g/ha
[6] = Application herbicide amount 320 g/ha, effect on crop

Structure (SMILES) | A (Echinochloa oryzicola Vasing.) herbicidal ratio grade [1] | C (Monochoria vaginalis) herbicidal ratio grade (Monochoria vaginalis) | B (Scirpus juncoides) herbicidal ratio grade (Scirpus juncoides) | M (Abutilon theophrasti) herbicidal effect (Abutilon theophrasti) | J (Alopecurus myosuroides) herbicidal effect (Alopecurus myosuroides) | L (Apera spica-venti.) herbicidal effect (Apera spica-venti.) | I (Avena fatua) herbicidal effect (Avena fatua) | O (Chenopodium album) herbicidal effect (Chenopodium album) | H (Echinochloa crus-galli var. crus-galli) herbicidal effect [2] | K (Lolium multiflorum Lam.) herbicidal effect (Lolium multiflorum Lam.) | G (Setaria viridis) herbicidal effect (Setaria viridis) | R (Veronica persica) herbicidal effect (Veronica persica) | f (Beta vulgaris ssp. vulgaris) effect on crop [3] | g (Brassica campestris L.) effect on crop (Brassica campestris L.) | c (Glycine max) effect on crop (Glycine max) | e (Triticum aestivum) effect on crop (Triticum aestivum) | b (Zea mays) effect on crop (Zea mays) | d (directly sowed Oryza sativa) effect on crop [4] | further results
CC(C)c1nnc2c(C(=O)Nc3nnco3)ccc(C(F)(F)F)n12 [1-050] | 5 (Herbicidal ratio of 90% or more (almost completely withered)) | 3 (Herbicidal ratio of 40% or more and less than 70%) | 4 (Herbicidal ratio of 70% or more and less than 90%) | 5 (Herbicidal ratio of 90% or more (almost completely withered)) | 2 (Herbicidal ratio of 20% or more and less than 40%) | 3 (Herbicidal ratio of 40% or more and less than 70%) | 3 (Herbicidal ratio of 40% or more and less than 70%) | 5 (Herbicidal ratio of 90% or more (almost completely withered)) | 5 (Herbicidal ratio of 90% or more (almost completely withered)) | 3 (Herbicidal ratio of 40% or more and less than 70%) | 4 (Herbicidal ratio of 70% or more and less than 90%) | 5 (Herbicidal ratio of 90% or more (almost completely withered)) | 5 (Herbicidal ratio of 90% or more (almost completely withered)) | 5 (Herbicidal ratio of 90% or more (almost completely withered)) | 3 (Herbicidal ratio of 40% or more and less than 70%) | 3 (Herbicidal ratio of 40% or more and less than 70%) | 1 (Herbicidal ratio of 5% or more and less than 20%) | 4 (Herbicidal ratio of 70% or more and less than 90%) | 
CC(C)c1nnc2c(C(=O)Nc3nnc(C4CC4)o3)ccc(C(F)(F)F)n12 [1-051] | 4 (Herbicidal ratio of 70% or more and less than 90%) | 4 (Herbicidal ratio of 70% or more and less than 90%) | 3 (Herbicidal ratio of 40% or more and less than 70%) | 5 (Herbicidal ratio of 90% or more (almost completely withered)) | 0 (Herbicidal ratio of 5% or less (almost no effect)) | 1 (Herbicidal ratio of 5% or more and less than 20%) | 1 (Herbicidal ratio of 5% or more and less than 20%) | 5 (Herbicidal ratio of 90% or more (almost completely withered)) | 4 (Herbicidal ratio of 70% or more and less than 90%) | 1 (Herbicidal ratio of 5% or more and less than 20%) | 3 (Herbicidal ratio of 40% or more and less than 70%) | 3 (Herbicidal ratio of 40% or more and less than 70%) | 3 (Herbicidal ratio of 40% or more and less than 70%) | 1 (Herbicidal ratio of 5% or more and less than 20%) | 0 (Herbicidal ratio of 5% or less (almost no effect)) | 1 (Herbicidal ratio of 5% or more and less than 20%) | 0 (Herbicidal ratio of 5% or less (almost no effect)) | 1 (Herbicidal ratio of 5% or more and less than 20%) | 
COCCc1nnc(NC(=O)c2ccc(C(F)(F)F)n3c(C(C)C)nnc23)o1 [1-052] | 1 (Herbicidal ratio of 5% or more and less than 20%) | 0 (Herbicidal ratio of 5% or less (almost no effect)) | 1 (Herbicidal ratio of 5% or more and less than 20%) | 4 (Herbicidal ratio of 70% or more and less than 90%) | 1 (Herbicidal ratio of 5% or more and less than 20%) | 3 (Herbicidal ratio of 40% or more and less than 70%) | 0 (Herbicidal ratio of 5% or less (almost no effect)) | 5 (Herbicidal ratio of 90% or more (almost completely withered)) | 2 (Herbicidal ratio of 20% or more and less than 40%) | 1 (Herbicidal ratio of 5% or more and less than 20%) | 1 (Herbicidal ratio of 5% or more and less than 20%) | 3 (Herbicidal ratio of 40% or more and less than 70%) | 3 (Herbicidal ratio of 40% or more and less than 70%) | 3 (Herbicidal ratio of 40% or more and less than 70%) | 0 (Herbicidal ratio of 5% or less (almost no effect)) | 0 (Herbicidal ratio of 5% or less (almost no effect)) | 0 (Herbicidal ratio of 5% or less (almost no effect)) | 2 (Herbicidal ratio of 20% or more and less than 40%) | 
Cc1nnc(NC(=O)c2ccc(C(F)F)n3c(C(C)C)nnc23)o1 [1-053] | 1 (Herbicidal ratio of 5% or more and less than 20%) | 0 (Herbicidal ratio of 5% or less (almost no effect)) | 2 (Herbicidal ratio of 20% or more and less than 40%) | 4 (Herbicidal ratio of 70% or more and less than 90%) | 0 (Herbicidal ratio of 5% or less (almost no effect)) | 0 (Herbicidal ratio of 5% or less (almost no effect)) | 1 (Herbicidal ratio of 5% or more and less than 20%) | 5 (Herbicidal ratio of 90% or more (almost completely withered)) | 3 (Herbicidal ratio of 40% or more and less than 70%) | 0 (Herbicidal ratio of 5% or less (almost no effect)) | 2 (Herbicidal ratio of 20% or more and less than 40%) | 4 (Herbicidal ratio of 70% or more and less than 90%) | 3 (Herbicidal ratio of 40% or more and less than 70%) | 1 (Herbicidal ratio of 5% or more and less than 20%) | 0 (Herbicidal ratio of 5% or less (almost no effect)) | 0 (Herbicidal ratio of 5% or less (almost no effect)) | 0 (Herbicidal ratio of 5% or less (almost no effect)) | 3 (Herbicidal ratio of 40% or more and less than 70%) | 
Cc1nnc(NC(=O)c2ccc(C(F)(F)F)n3c(-c4ccc(Cl)nc4)nnc23)o1 [1-054] | 4 (Herbicidal ratio of 70% or more and less than 90%) | 3 (Herbicidal ratio of 40% or more and less than 70%) | 3 (Herbicidal ratio of 40% or more and less than 70%) |  |  |  |  |  |  |  |  |  |  |  |  |  |  |  | M (Abutilon theophrasti; [5]): 5 (Herbicidal ratio of 90% or more (almost completely withered)); J (Alopecurus myosuroides; [5]): 3 (Herbicidal ratio of 40% or more and less than 70%); L (Apera spica-venti.; [5]): 3 (Herbicidal ratio of 40% or more and less than 70%); I (Avena fatua; [5]): 3 (Herbicidal ratio of 40% or more and less than 70%); O (Chenopodium album; [5]): 5 (Herbicidal ratio of 90% or more (almost completely withered)); H [2, 5]: 5 (Herbicidal ratio of 90% or more (almost completely withered)); K (Lolium multiflorum Lam.; [5]): 3 (Herbicidal ratio of 40% or more and less than 70%); G (Setaria viridis; [5]): 4 (Herbicidal ratio of 70% or more and less than 90%); R (Veronica persica; [5]): 5 (Herbicidal ratio of 90% or more (almost completely withered)); f [3, 6]: 4 (Herbicidal ratio of 70% or more and less than 90%); g (Brassica campestris L.; [6]): 4 (Herbicidal ratio of 70% or more and less than 90%); c (Glycine max; [6]): 1 (Herbicidal ratio of 5% or more and less than 20%); e (Triticum aestivum; [6]): 3 (Herbicidal ratio of 40% or more and less than 70%); b (Zea mays; [6]): 0 (Herbicidal ratio of 5% or less (almost no effect)); d [4, 6]: 3 (Herbicidal ratio of 40% or more and less than 70%)
